Test results: publication PMC5796027, “Thiopurine Drugs Repositioned as Tyrosinase Inhibitors” (International Journal of Molecular Sciences, 2017)
Entries after “also recorded” stand apart in the source; their conditions may differ.

Legend:
[1] = biological target: T1, mushroom tyrosinase (Agaricus bisporus, UniProt C7FF04); assay: Mushroom tyrosinase enzyme inhibition assay (dopachrome absorbance at 475 nm); type: biochemical; conditions: for inhibition of mushroom tyrosinase (in words): enzyme assay with 0.01% Triton X-100; for LE, ligand efficiency: −1.37 × (Log10Ki)/HA, HA = number of heavy atoms
Procedure: (§1) Enzyme activity and kinetics experiments with inhibitors—All of the reagents used in this study were purchased from ChemBridge (San Diego, CA, USA), Sigma-Aldrich (St. Louis, MO, USA), or Tokyo Chemical Industry (Tokyo, Japan). The reaction solution for the enzyme assay was prepared with 200 nM mushroom tyrosinase and inhibitors in phosphate-buffered saline (PBS), containing 5% dimethyl sulphoxide and 0.01% (w/v) Triton X-100. After incubating the mixture at 30 °C for 10 min, 500 μM L-tyrosine was added as the substrate. […] The IC50 was evaluated by analysing different concentrations of each inhibitor. The inhibitory constants (Ki) were converted from the IC50 values using the Km obtained from kinetics experiments and substrate concentration based on the Cheng–Prusoff equation [60]. A series of substrates at concentrations of 0.25, 0.33, 0.4, 0.5, 0.67, and 1 mM were used to obtain the respective velocities (V) for enzyme inhibitory kinetics. The concentrations of each inhibitor were varied and comprised the range that included the IC50 value. Four models (competitive, uncompetitive, non-competitive, and mixed) that were derived from the Michaelis-Menten equation were used to fit the kinetic parameters, maximum velocity (Vmax), Michaelis constant (Km), and the dissociation constants between the substrate-free enzyme and inhibitor (Kic) and the substrate-bound enzyme and inhibitor (Kiu). The data from all the concentrations of the substrate and inhibitor were simultaneously fitted nonlinearly by minimising the χ^2 value, defined as the sum of the squared deviations between experimental and fitted values for each model. The appropriate model was selected based on the F-test with χ^2 values from the four models, coupled with the extraction of the related parameters. All of the fittings and statistical analyses in this study were computed by using MATLAB® (MathWorks, Natick, MA, USA).
Target sequence in this assay (C7FF04 1-392): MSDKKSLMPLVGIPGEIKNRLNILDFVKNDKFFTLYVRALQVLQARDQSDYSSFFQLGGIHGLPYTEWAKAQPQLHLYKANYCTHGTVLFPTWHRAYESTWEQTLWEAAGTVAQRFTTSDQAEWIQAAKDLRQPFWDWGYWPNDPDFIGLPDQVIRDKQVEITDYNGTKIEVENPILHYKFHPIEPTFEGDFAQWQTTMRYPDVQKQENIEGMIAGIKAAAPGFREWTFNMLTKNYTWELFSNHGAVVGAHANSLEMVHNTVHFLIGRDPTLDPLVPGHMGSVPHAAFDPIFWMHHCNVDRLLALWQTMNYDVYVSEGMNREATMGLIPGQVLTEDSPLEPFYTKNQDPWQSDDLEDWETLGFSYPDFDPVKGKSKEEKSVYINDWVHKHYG

[2] = set-up: method as in PMID 22587354, PMID 18551414, PMID 15667143; conditions: extracted from the ZINC database ref 33,34,35; cited from earlier work
[3] = biological target: tyrosinase; conditions: cited from earlier work; for reported inhibition of tyrosinase through direct binding: literature survey ref 36,37
[4] = biological target: T1, mushroom tyrosinase; assay: Enzyme inhibitory kinetics with nonlinear fitting of Michaelis-Menten models; type: biochemical; conditions: for Mechanism of inhibition: model chosen by χ2 and F-test among competitive, uncompetitive, non-competitive, mixed; for Ki: nonlinear data fitting, competitive model, read-out: kinetically fitted Ki
Procedure: as §1
Target sequence in this assay (C7FF04 1-392): as above

[5] = biological target: T1, mushroom tyrosinase; assay: Differential scanning fluorimetry (DSF); type: binding; conditions: 0.5 μM protein, 200 μM inhibitor, control without inhibitor 51.8 °C
Procedure: DSF—The stability of mushroom tyrosinase in the presence and absence of inhibitors was assessed using DSF using a […] (RT-PCR) CFX96 system (BioRad, Hercules, CA, USA). […] The Tm value, which is the mid-point melting temperature, was calculated from a nonlinear fit of the temperature-dependent fluorescent intensity I(T), expressed as the Boltzmann equation: I(T)=LL+UL−LL/1+exp(Tm−T/a), where UL and LL are related to the baseline and top of the curves, respectively, and a is the steepness of the slope. Only data in the range of 35–65 °C were used for the fitting.
Target sequence in this assay (C7FF04 1-392 limits assumed): as the sequence (C7FF04 1-392) above

[6] = biological target: T2, mammalian tyrosinase (Mus musculus, UniProt P11344); assay: Tyrosinase inhibition in B16F10 cell lysates (L-DOPA substrate); type: biochemical, murine; conditions: 10, 20, 50 μM inhibitor, 500 μM L-DOPA
T2 construct: we performed an enzymatic assay with melanoma B16F10 cell lysates; endogenous in cells; host or cells: B16F10 murine melanoma cells (Korean Cell Line Bank), Triton X-100 lysate, dialysed supernatant
T2 sequence (P11344 19-533): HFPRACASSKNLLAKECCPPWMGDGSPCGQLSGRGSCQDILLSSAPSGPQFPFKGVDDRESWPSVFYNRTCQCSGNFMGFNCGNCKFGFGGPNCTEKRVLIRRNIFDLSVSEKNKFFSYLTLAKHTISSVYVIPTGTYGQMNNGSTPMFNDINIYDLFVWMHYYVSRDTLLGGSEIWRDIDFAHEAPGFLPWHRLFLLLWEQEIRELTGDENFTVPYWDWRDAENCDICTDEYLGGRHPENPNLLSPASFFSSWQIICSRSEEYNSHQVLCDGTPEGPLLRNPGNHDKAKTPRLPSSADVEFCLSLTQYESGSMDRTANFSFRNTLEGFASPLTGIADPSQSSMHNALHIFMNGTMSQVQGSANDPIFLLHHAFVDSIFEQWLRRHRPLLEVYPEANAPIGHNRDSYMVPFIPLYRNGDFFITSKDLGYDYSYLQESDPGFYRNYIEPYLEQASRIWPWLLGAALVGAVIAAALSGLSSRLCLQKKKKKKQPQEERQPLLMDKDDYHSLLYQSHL
Procedure: (§2) Cell-based activity assays with inhibitors—The melanin content and MTT conversion were measured in B16F10 murine melanoma cells that were purchased from the Korean Cell Line Bank (Seoul, Korea). When the density of B16F10 cells reached 1 × 10^5 cells, the test inhibitors (10, 20, and 50 μM) and 3-isobutyl-1-methylxanthine (IBMX, 100 μM) were added, and the cells were incubated for 48 h. The amount of melanin released into the extracellular area was quantified by measuring the absorbance at 405 nm, and was subsequently expressed as a percentage relative to the untreated control. The change in the reduction of the MTT dye into formazan in the cell was quantitatively interpreted as the cellular toxicity induced by the inhibitor. The inhibition of tyrosinase was also estimated using the B16F10 cell lysates, as described previously [28]. In brief, the cells were lysed in PBS supplemented with 1% (w/v) Triton X-100, centrifuged at 14,000 g for 30 min, and then the supernatants were dialysed to remove Triton X-100. After adding 500 μM L-DOPA and the inhibitors (10, 20, and 50 μM) to the prepared lysates, the change in absorbance over time at 475 nm was measured. The decrease in absorbance was calculated relative to the absorbance of the untreated controls.

[7] = system: B16F10 murine melanoma cells; assay: Melanin content assay in B16F10 cells; type: cell-based; conditions: 10, 20 and 50 μM tested, 48 h
Procedure: as §2

[8] = system: human hepatocytes; conditions: up to several tens of μM ref 43; cited from earlier work
[9] = system: melanin contents; set-up: method as in PMID 23123645, PMID 23411395, PMID 22901670; conditions: higher concentrations (>100 μM) ref 44,45,46; cited from earlier work

## Nc1nc2nc[nH]c2c(=O)[nH]1 [Guanine, guanine]
[1]
  Ki: > 1000 µM
  inhibition of mushroom tyrosinase (in words): only thioinosine inhibited tyrosinase
[2]
  LogP: −0.77

## Nn1c(S)nnc1-c1ccncc1 [ZINC509439, 4-amino-5-(4-pyridyl)-4H-1,2,4-triazole-3-thiol]
[3]; BindingDB entry ref 48, read-out: reported Ki
  Ki: 1 µM

## NC(CC(=O)O)C(=O)O (racemic) [D,L-aspartic acid]
[1]
  inhibition of mushroom tyrosinase (in words): only thioguanine exerted inhibitory action

## O=C(O)c1cccnc1Nc1cccc(C(F)(F)F)c1 [nifumic acid]
[1]
  inhibition of mushroom tyrosinase (in words): only thioguanine exerted inhibitory action

## CCCN(CCC)S(=O)(=O)c1ccc(C(=O)O)cc1 [probenecid]
[1]
  inhibition of mushroom tyrosinase (in words): only thioguanine exerted inhibitory action

## O=c1[nH]cnc2nc[nH]c12 [Hypoxanthine, hypoxanthine]
[1]
  Ki: > 1000 µM
  inhibition of mushroom tyrosinase (in words): only thioinosine inhibited tyrosinase
[2]
  LogP: −0.35

## Nc1ccc(C(=O)NCC(=O)O)cc1 [aminohippuric acid]
[3]
  reported inhibition of tyrosinase through direct binding: has been reported

## O=Cc1ccc(O[C@@H]2O[C@H](CO)[C@@H](O)[C@@H](O)[C@H]2O)cc1 [ZINC5234422, 4-(β-D-allopyranosyloxy)benzaldehyde]
[3]; BindingDB entry ref 48, read-out: half-maximal inhibitory concentration (IC50)
  IC50: 94 µM

## O=C(O)c1cc(-c2ccc(F)cc2F)ccc1O [diflunisal]
[3]
  reported inhibition of tyrosinase through direct binding: has been reported

## Cn1cnc([N+](=O)[O-])c1Sc1ncnc2nc[nH]c12 [Azathioprine, azathioprine]
[1]
  Ki: > 1000 µM
  inhibition of mushroom tyrosinase (in words): but not azathioprine, exerted an inhibitory activity; also recorded: poor inhibitor
[2]
  LogP: 1.15

## N[C@@H](CSCC(=O)O)C(=O)O [S-carboxymethyl-L-cysteine]
[1]
  inhibition of mushroom tyrosinase (in words): only thioguanine exerted inhibitory action

## OC[C@H]1O[C@@H](n2cnc3c(S)ncnc32)[C@H](O)[C@@H]1O [Thioinosine, thioinosine]
[1]; read-out: Ki
  Ki: 8 µM
[1]
  LE, ligand efficiency: 0.34
[4]
  Mechanism of inhibition: Competitive
  Ki: 14 µM
[4]; listed as thioinosine
  Mechanism of inhibition: competitive inhibitors
[5]
  Tm of tyrosinase in complex with inhibitor: 51.0 ± 0.2 °C
[5]; listed as thioinosine
  Tm of tyrosinase in complex with inhibitor: 51.0 °C
[6]
  inhibition of tyrosinase in B16F10 cell lysates (in words): inhibited melanin syntheses in a concentration-dependent manner
[7]
  reduction of melanin content (in words): markedly reduced the melanin content at 20 and 50 μM
[2]
  LogP: −0.90

## Sc1ncnc2nc[nH]c12 [Mercaptopurine, mercaptopurine]
[1]; read-out: Ki
  Ki: 16 µM
[1]
  LE, ligand efficiency: 0.61
[4]
  Mechanism of inhibition: Competitive
  Ki: 29 µM
[4]; listed as mercaptopurine
  Mechanism of inhibition: competitive inhibitors
[5]
  Tm of tyrosinase in complex with inhibitor: 49.0 ± 0.2 °C
[5]; listed as mercaptopurine
  Tm of tyrosinase in complex with inhibitor: 49.0 °C
[6]
  inhibition of tyrosinase in B16F10 cell lysates (in words): highest inhibition
[6]; listed as mercaptopurine
  inhibition of tyrosinase in B16F10 cell lysates (in words): inhibited melanin syntheses in a concentration-dependent manner
[7]
  reduction of melanin content (in words): less effective
[2]
  LogP: 1.00
[8]
  cytotoxicity in human hepatocytes: less cytotoxic up to several tens of μM

## COc1ccc(/C=C/C(=O)Nc2ccccc2C(=O)O)cc1OC [tranilast]
[1]
  inhibition of mushroom tyrosinase (in words): only thioguanine exerted inhibitory action

## Nc1nc2nc[nH]c2c(=S)[nH]1 [Thioguanine, thioguanine]
[1]
  inhibition of mushroom tyrosinase (in words): only thioguanine exerted inhibitory action
[1]; read-out: Ki
  Ki: 52 µM
[4]
  Mechanism of inhibition: Competitive
  Ki: 40 µM
[4]; listed as thioguanine
  Mechanism of inhibition: competitive inhibitors
[5]
  Tm of tyrosinase in complex with inhibitor: 49.8 ± 0.2 °C
[5]; listed as thioguanine
  Tm of tyrosinase in complex with inhibitor: 49.8 °C
[6]
  inhibition of tyrosinase in B16F10 cell lysates (in words): inhibited melanin syntheses in a concentration-dependent manner
[7]
  reduction of melanin content (in words): markedly reduced the melanin content at 20 and 50 μM
[2]
  LogP: 0.60

## O=c1cc(CO)occ1O [Kojic acid, kojic acid]
[7]
  reduction of melanin content (in words): marginal
[2]
  LogP: −0.16
[9]
  decrease of melanin contents: meaningful decreases
